This is an account of results in patent US10626125B2, “1,1,1-trifluoro-3-hydroxypropan-2-yl carbamate derivatives as MAGL inhibitors” (PFIZER INC., priority 2017, dated 2020).

Test [1] concerns the target T1, human recombinant Monoacylglycerol Lipase (Homo sapiens, UniProt Q99685).
T1 sequence (Q99685 1-303): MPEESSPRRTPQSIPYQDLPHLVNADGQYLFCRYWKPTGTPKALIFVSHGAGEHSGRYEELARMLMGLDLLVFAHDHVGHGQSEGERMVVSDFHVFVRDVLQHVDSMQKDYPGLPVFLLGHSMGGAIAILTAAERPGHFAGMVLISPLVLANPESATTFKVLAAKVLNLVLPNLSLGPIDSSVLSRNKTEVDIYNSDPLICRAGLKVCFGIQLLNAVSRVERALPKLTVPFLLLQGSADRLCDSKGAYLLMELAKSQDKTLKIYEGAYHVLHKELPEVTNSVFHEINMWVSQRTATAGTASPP
Briefly: MAGL enzymatic assay (IC50; 7-HCA substrate added at T=0 min or T=30 min). Format: biochemical.

Test [2] deals with T1, human recombinant Monoacylglycerol Lipase. Briefly: MAGL inactivation (kinact/KI from enzyme progress curves, T=0 min protocol). As to conditions: from plot of Kobs vs. compound concentration, geometric mean of 2-5 determinations (b: ≥6).
The mark [3] stands for this setting: MAGL (T = 30 min) IC50, substrate 7-HCA added after 30 minute incubation (T=30 min), geometric mean of 2-5 determinations unless otherwise indicated.
[4] abbreviates: substrate 7-HCA added immediately (T=0 min), geometric mean of 2-5 determinations unless otherwise indicated, read-out: MAGL (T = 0 min) IC50.
[5] abbreviates: MAGL (T=30 min) IC50, 30 minute incubation of compound with MAGL enzyme before addition of 7-HCA substrate.
The mark [6] stands for this setting: read-out: MAGL (T=30 min) IC50, 30 minute incubation of compound with MAGL enzyme before addition of 7-HCA substrate.

Molecules are shown by their SMILES. Read-outs that look alike come from different tables or passages of the source.

As to `O=C(O[C@H](CO)C(F)(F)F)N1CCC2(CC1)CC(n1cc(C3CC3)cn1)CO2` (mixture of isomers) [Example 23, (2R)-1,1,1-trifluoro-3-hydroxypropan-2-yl 3-(4-cyclopropyl-1H-pyrazol-1-yl)-1-oxa-8-azaspiro[4.5]decane-8-carboxylate, mixture of diastereomers], the IC50 in test [1] (setting [3]) came out at 9 nM; in test [1] (setting [4]), 68 nM. For the same molecule, in test [2], the “MAGL kinact/KI” value is listed as 9650 1/s per M.

In the case of `O=C(O[C@H](CO)C(F)(F)F)N1CCC2(CC1)CC(Cn1cc(C(F)(F)F)cn1)CO2` (single isomer, unassigned) [Example 3], the IC50 in test [1] (setting [3]) turned out to be 7 nM; in test [1] (setting [4]), 47 nM. Besides, the “MAGL kinact/KI” value in test [2] is listed as 10300 1/s per M.

For `O=C(O[C@H](CO)C(F)(F)F)N1CCC2(CC1)CC(Cn1cc(C(F)(F)F)cn1)CO2` (single isomer, unassigned) [Example 4], the IC50 is 8 nM in test [1] (setting [3]) and 65 nM in test [1] (setting [4]). For the same molecule, the “MAGL kinact/KI” value in test [2] is given as 4710 1/s per M.

With `O=C(O[C@H](CO)C(F)(F)F)N1CCC2(CC1)CC(n1cc(C(F)(F)F)cn1)CO2` (single isomer, unassigned) [Example 8], the results for the IC50 in test [1] (setting [3]) and in test [1] (setting [4]) were 16 nM and 172 nM, respectively. Besides, in test [2], the “MAGL kinact/KI” value is listed as 2880 1/s per M.

`O=C(O[C@H](CO)C(F)(F)F)N1CCC2(CC1)CC(n1cc(C(F)(F)F)cn1)CO2` (single isomer, unassigned) [Example 9]: the figures for the IC50 in test [1] (setting [3]) and in test [1] (setting [4]) were 3 nM and 16 nM, respectively. Further, the “MAGL kinact/KI” value in test [2] was 32800 1/s per M.

Take `O=C(O[C@H](CO)C(F)(F)F)N1CCC2(CC1)CC(c1cccc(C(F)(F)F)n1)CO2` (single isomer, unassigned) [Example 14]: the IC50 in test [1] (setting [3]) turned out to be 1 nM; in test [1] (setting [4]) it was 5 nM. The “MAGL kinact/KI” value in test [2] is on record as 124000^b 1/s per M.

Consider `O=C(O[C@H](CO)C(F)(F)F)N1CCC2(CC1)CC(c1cccc(C(F)(F)F)n1)CO2` (single isomer, unassigned) [Example 15], for which the figures for the IC50 in test [1] (setting [3]) and in test [1] (setting [4]) were 7 nM and 67 nM, respectively. In addition, the “MAGL kinact/KI” value in test [2] is 8230 1/s per M.

As for `CN(C1CCOC2(CCN(C(=O)O[C@H](CO)C(F)(F)F)CC2)C1)S(=O)(=O)CC1CC1` (single isomer, unassigned) [Example 50], the IC50 in test [1] (setting [3]) amounted to 67 nM; in test [1] (setting [4]), 752 nM.

Turning to `O=C(O[C@H](CO)C(F)(F)F)N1CCC2(CC1)CC(n1cc(C(F)F)cn1)CO2` (single isomer, unassigned) [diastereomer of Example 20], the IC50 in test [1] (setting [5]) is 65 nM.

Take `CC(C)(C)c1cnn(C2COC3(CCN(C(=O)OC(CO)C(F)(F)F)CC3)C2)c1` (single isomer, unassigned) [diastereomer of Example 21]: the IC50 in test [1] (setting [6]) turned out to be 7 nM.

As to `O=C(OC(CO)C(F)(F)F)N1CCC2(CC1)CC(n1cc(Cl)cn1)CO2` (single isomer, unassigned) [diastereomer of Example 22], the half-inhibitory concentration (IC50) in test [1] (setting [6]) was 23 nM.

As to `Cc1cnn(C2COC3(CCN(C(=O)O[C@H](CO)C(F)(F)F)CC3)C2)c1` (single isomer, unassigned) [diastereomer of Example 24], the IC50 in test [1] (setting [6]) was found to be 60 nM.

Consider `N#Cc1cc(C2COC3(CCN(C(=O)OC(CO)C(F)(F)F)CC3)C2)ccc1F` (single isomer, unassigned) [diastereomer of Example 28], for which, in test [1] (setting [6]), the concentration for half-maximal inhibition (IC50) came out at 14 nM.

As for `N#Cc1ccc(C2COC3(CCN(C(=O)O[C@H](CO)C(F)(F)F)CC3)C2)cc1` (single isomer, unassigned) [diastereomer of Example 31], the IC50 in test [1] (setting [6]) came to 23 nM.

Take `O=C(O[C@H](CO)C(F)(F)F)N1CCC2(CC1)CC(c1c(F)cccc1F)CO2` (single isomer, unassigned) [diastereomer of Example 32]: in test [1] (setting [5]), the IC50 amounted to 1 nM.

Consider `O=C(OC(CO)C(F)(F)F)N1CCC2(CC1)CC(c1ccc(F)cc1F)CO2` (single isomer, unassigned) [diastereomer of Example 33], for which the IC50 in test [1] (setting [6]) turned out to be 2 nM.

Consider `O=C(OC(CO)C(F)(F)F)N1CCC2(CC1)CC(c1ccc(F)cc1)CO2` (single isomer, unassigned) [diastereomer of Example 34], for which the IC50 in test [1] (setting [6]) was found to be 1 nM.

As for `O=C(OC(CO)C(F)(F)F)N1CCC2(CC1)CC(c1cc(C(F)F)ccn1)CO2` (single isomer, unassigned) [diastereomer of Example 35], in test [1] (setting [6]), the IC50 was 19 nM.

In the case of `N#Cc1ccc(C2COC3(CCN(C(=O)OC(CO)C(F)(F)F)CC3)C2)nc1` (single isomer, unassigned) [diastereomer of Example 38], the half-maximal inhibitory concentration (IC50) in test [1] (setting [6]) stood at 336 nM.

Regarding `O=C(O[C@H](CO)C(F)(F)F)N1CCC2(CC1)CC(c1ccc(C(F)F)cn1)CO2` (single isomer, unassigned) [diastereomer of Example 39], the half-inhibitory concentration (IC50) in test [1] (setting [6]) came to 31 nM.

Turning to `O=C(OC(CO)C(F)(F)F)N1CCC2(CC1)CC(c1ccc(C(F)(F)F)cn1)CO2` (single isomer, unassigned) [diastereomer of Example 40], the IC50 in test [1] (setting [6]) was 9 nM.

Turning to `O=C(OC(CO)C(F)(F)F)N1CCC2(CC1)CC(c1ccccn1)CO2` (single isomer, unassigned) [diastereomer of Example 41], in test [1] (setting [6]), the IC50 was 20 nM.

For `CN(C1CCOC2(CCN(C(=O)OC(CO)C(F)(F)F)CC2)C1)S(=O)(=O)CC1CC1` (single isomer, unassigned) [diastereomer of Example 50], the IC50 in test [1] (setting [6]) stood at 284 nM.

On to `CC(C)(C)c1ccn(C2COC3(CCN(C(=O)OC(CO)C(F)(F)F)CC3)C2)n1` (single isomer, unassigned) [diastereomer of Example 52], for which the IC50 in test [1] (setting [6]) amounted to 4 nM.

With `O=C(OC(CO)C(F)(F)F)N1CCC2(CC1)CC(n1ccc(C(F)(F)F)n1)CO2` (single isomer, unassigned) [diastereomer of Example 53], in test [1] (setting [6]), the IC50 amounted to 9 nM.

Regarding `Cc1cn(C2COC3(CCN(C(=O)OC(CO)C(F)(F)F)CC3)C2)nc1C` (single isomer, unassigned) [diastereomer of Example 54], the IC50 in test [1] (setting [6]) amounted to 20 nM.

For the molecule `O=C(O[C@H](CO)C(F)(F)F)N1CCC2(CC1)CC(n1ncc3ccccc31)CO2` (single isomer, unassigned) [diastereomer of Example 62], the IC50 in test [1] (setting [6]) was found to be 49 nM.

For the molecule `O=C(OC(CO)C(F)(F)F)N1CCC2(CCC(n3cc(C(F)(F)F)cn3)CO2)CC1` (single isomer, unassigned) [diastereomer of Example 69], the IC50 in test [1] (setting [6]) worked out at 3 nM.

For the molecule `O=C(OC(CO)C(F)(F)F)N1CCC2(CCC(n3cc(F)cn3)CO2)CC1` (single isomer, unassigned) [diastereomer of Example 70], the IC50 in test [1] (setting [6]) worked out at 14 nM.

Regarding `N#Cc1cccc(C2COC3(CCN(C(=O)O[C@H](CO)C(F)(F)F)CC3)C2)c1F` (single isomer, unassigned) [diastereomer of Example 71], the IC50 in test [1] (setting [5]) turned out to be 8 nM.

On to `N#Cc1ccc(C2COC3(CCN(C(=O)O[C@H](CO)C(F)(F)F)CC3)C2)c(F)c1` (single isomer, unassigned) [diastereomer of Example 72], for which the IC50 in test [1] (setting [5]) turned out to be 12 nM.

As to `N#Cc1cccc(C2CCOC3(CCN(C(=O)OC(CO)C(F)(F)F)CC3)C2)c1` (single isomer, unassigned) [diastereomer of Example 73], in test [1] (setting [6]), the 50% inhibitory concentration (IC50) was determined as 74 nM.

With `O=C(OC(CO)C(F)(F)F)N1CCC2(CCC(c3ccc(F)cn3)CO2)CC1` (single isomer, unassigned) [diastereomer of Example 74], the IC50 in test [1] (setting [6]) is 15 nM.

As to `O=C(OC(CO)C(F)(F)F)N1CCC2(CCC(n3cc(C(F)F)cn3)CO2)CC1` (single isomer, unassigned) [diastereomer of Example 75], in test [1] (setting [6]), the half-inhibitory concentration (IC50) turned out to be 3 nM.

For the molecule `O=C(O[C@H](CO)C(F)(F)F)N1CCC2(CC1)C[C@H](n1cc(F)cn1)CO2` [Example 10, (2R)-1,1,1-Trifluoro-3-hydroxypropan-2-yl (3S)-3-(4-fluoro-1H-pyrazol-1-yl)-1-oxa-8-azaspiro[4.5]decane-8-carboxylate], the figures for the IC50 in test [1] (setting [3]) and in test [1] (setting [4]) were 49 nM and 563 nM, respectively.

On to `O=C(O[C@H](CO)C(F)(F)F)N1CCC2(CC1)C[C@@H](n1cc(F)cn1)CO2` [Example 11, (2R)-1,1,1-Trifluoro-3-hydroxypropan-2-yl (3R)-3-(4-fluoro-1H-pyrazol-1-yl)-1-oxa-8-azaspiro[4.5]decane-8-carboxylate], for which the results for the IC50 in test [1] (setting [3]) and in test [1] (setting [4]) were 15 nM and 211 nM, respectively.

For the molecule `O=C(O[C@H](CO)C(F)(F)F)N1CCC2(CC1)CC(Oc1ccc(C(F)F)nc1)C2` [Example 19, (2R)-1,1,1-Trifluoro-3-hydroxypropan-2-yl 2-{[6-(difluoromethyl)pyridin-3-yl]oxy}-7-azaspiro[3.5]nonane-7-carboxylate], the IC50 in test [1] (setting [3]) worked out at 1 nM; in test [1] (setting [4]), 8 nM.

On to `N#Cc1ccc([C@@H]2COC3(CCN(C(=O)O[C@H](CO)C(F)(F)F)CC3)C2)cc1F` [diastereomer of Example 27, (2R)-1,1,1-trifluoro-3-hydroxypropan-2-yl (3R)-3-(4-cyano-3-fluorophenyl)-1-oxa-8-azaspiro[4.5]decane-8-carboxylate], for which the IC50 in test [1] (setting [5]) worked out at 17 nM.
